Experiment [1] addresses D(2) dopamine receptor (Rattus norvegicus, UniProt P61169). The experiment in a line: Binding affinity towards dopamine receptor D2 using [3H]-raclopride radioligand.
For experiment [2], the target named is T1, 5-hydroxytryptamine receptor 1A (Rattus norvegicus, UniProt P19327).
T1 sequence (P19327 whole entry): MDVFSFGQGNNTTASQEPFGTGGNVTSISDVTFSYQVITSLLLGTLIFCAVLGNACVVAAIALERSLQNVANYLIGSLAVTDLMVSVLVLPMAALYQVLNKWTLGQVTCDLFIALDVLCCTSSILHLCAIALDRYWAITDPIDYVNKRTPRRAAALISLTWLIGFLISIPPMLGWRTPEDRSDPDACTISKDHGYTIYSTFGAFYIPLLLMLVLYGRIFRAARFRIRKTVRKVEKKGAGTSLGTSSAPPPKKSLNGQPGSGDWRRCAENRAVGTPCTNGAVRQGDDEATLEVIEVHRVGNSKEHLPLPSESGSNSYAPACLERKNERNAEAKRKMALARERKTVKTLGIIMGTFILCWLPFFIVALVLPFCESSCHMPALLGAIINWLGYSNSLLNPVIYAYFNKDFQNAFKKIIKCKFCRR
The experiment in a line: Binding affinity towards rat 5-hydroxytryptamine 1A receptor using [3H]8-OH-DPAT radioligand.

Usually Ki stands for the equilibrium dissociation constant of an inhibitor or competing ligand from its target.

Chain of D(2) dopamine receptor (P61169 whole entry): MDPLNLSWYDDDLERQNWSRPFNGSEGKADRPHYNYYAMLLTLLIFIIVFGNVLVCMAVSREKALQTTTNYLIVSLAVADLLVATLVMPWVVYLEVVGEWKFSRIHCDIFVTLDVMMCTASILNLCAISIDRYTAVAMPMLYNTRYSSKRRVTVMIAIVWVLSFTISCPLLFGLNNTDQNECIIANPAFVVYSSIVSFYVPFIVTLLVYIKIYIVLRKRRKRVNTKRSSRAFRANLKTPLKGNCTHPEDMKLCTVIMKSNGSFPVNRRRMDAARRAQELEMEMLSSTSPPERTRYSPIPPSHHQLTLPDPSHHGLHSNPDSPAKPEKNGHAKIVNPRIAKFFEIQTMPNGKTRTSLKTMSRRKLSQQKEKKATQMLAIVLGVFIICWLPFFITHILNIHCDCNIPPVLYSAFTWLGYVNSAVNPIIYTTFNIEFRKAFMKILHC

In the case of `O=c1n(CCN2CCN(c3ccc(F)cc3)CC2)c(O)c2n1CCCC2` [2-{2-[4-(4-Fluoro-phenyl)-piperazin-1-yl]-ethyl}-tetrahydro-imidazo[1,5-a]pyridine-1,3-dione], the Ki in experiment [1] and in experiment [2] was above 10000 nM each time.
On to `O=c1n(CCCCN2CCN(c3ccc([N+](=O)[O-])cc3)CC2)c(O)c2n1CCCC2` [2-{4-[4-(4-Nitro-phenyl)-piperazin-1-yl]-butyl}-tetrahydro-imidazo[1,5-a]pyridine-1,3-dione], for which the Ki in experiment [1] and in experiment [2] was above 1000 nM each time.
As to `O=c1n(CCCCN2CCN(c3ccc([N+](=O)[O-])cc3)CC2)c(O)c2n1CCC2`, the Ki in experiment [1] and in experiment [2] was above 1000 nM each time.

(Values after BindingDB's records for doi:10.1021/jm960416g (Universidad Complutense, 1996).)
